Results reported in ChEMBL document CHEMBL5316344, “Homologation of the Alkyl Side Chain of Antimitotic Phenyl 4-(2-Oxo-3-alkylimidazolidin-1-yl)benzenesulfonate Prodrugs Selectively Targeting CYP1A1-Expressing Breast Cancers Improves Their Stability in Rodent Liver Microsomes” (J Med Chem, 2023).
Active and inactive are the calls of the source. No cut-off for these calls is given here.

Key:
MCF7 [1] = experiment: Induction of cell cycle arrest in human MCF7 cells expressing CYP1A1 assessed as accumulation of cells at S phase at 50 nM incubated for 48 hrs by DAPI staining based flow cytometric analysis (reference value: 11+/-1 %); format: functional
HT-1080 [2] = experiment: Antitumor activity against human HT-1080 cells xenografted in chick embryo assessed as reduction in tumor wet weight at 1 ug, iv incubated for 17 days by CAM assay; format: functional; design: scale not given: the % may be the effect or the level left; details: dose 1 µg, time 17 day
MCF7 [3] = experiment: Induction of cell cycle arrest in human MCF7 cells expressing CYP1A1 assessed as accumulation of cells at G2/M phase at 50 nM incubated for 48 hrs by DAPI staining based flow cytometric analysis (reference value: 16+/-2 %); format: functional
Cytochrome P450 1A1 [4] = target: T1, Cytochrome P450 1A1 (Homo sapiens, UniProt P04798); experiment: Binding affinity to human CYP1A1 assessed as inhibition of conversion of 7-ethoicyresorufin into fluorescent resorufin by measuring inhibition constant preincubated for 5 mins followed by […] addition measured every minute for 15 mins by EROD assay; format: ADME
T1 sequence (P04798 whole entry): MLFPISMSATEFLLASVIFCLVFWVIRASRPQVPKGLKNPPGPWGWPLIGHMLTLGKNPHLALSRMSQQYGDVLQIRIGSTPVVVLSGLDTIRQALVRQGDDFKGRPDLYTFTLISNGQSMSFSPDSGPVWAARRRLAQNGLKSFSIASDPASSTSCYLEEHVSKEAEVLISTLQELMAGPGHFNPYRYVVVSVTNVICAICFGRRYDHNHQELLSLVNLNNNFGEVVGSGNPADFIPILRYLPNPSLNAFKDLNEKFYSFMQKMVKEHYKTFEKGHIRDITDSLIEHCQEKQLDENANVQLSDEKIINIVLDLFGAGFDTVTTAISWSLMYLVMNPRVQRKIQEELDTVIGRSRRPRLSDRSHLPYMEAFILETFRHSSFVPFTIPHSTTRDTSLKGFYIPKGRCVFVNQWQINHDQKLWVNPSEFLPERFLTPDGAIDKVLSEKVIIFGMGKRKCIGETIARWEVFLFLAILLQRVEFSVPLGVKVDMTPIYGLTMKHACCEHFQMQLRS

MDA-MB-231 = experiment: Antiproliferative activity against ER/PR/HER2-negative human MDA-MB-231 cells assessed as cell growth inhibition incubated for 72 hrs by sulforhodamine B assay; format: functional, cell-based; details: MDA-MB-231, 72 h
HT-1080 [5] = experiment: Antitumor activity against human HT-1080 cells transfected with empty vector xenografted in chick embryo assessed as reduction in tumor wet weight at 1 ug, iv incubated for 17 days by CAM assay; format: functional; design: scale not given: the % may be the effect or the level left; details: dose 1 µg, time 17 day
[6] = Stability in rat liver microsomes assessed as half life incubated for 60 mins by HPLC analysis; format: ADME, Microsome
[7] = Stability in human liver microsomes assessed as intrinsic clearance incubated for 60 mins by HPLC analysis; format: ADME, Microsome; details: read-out: CLH
[8] = Selectivity ratio, ratio of IC50 for antiproliferative activity against human M21 cells to IC50 for antiproliferative activity against human MCF7 cells expressing CYP1A1; format: functional
MCF7 [9] = experiment: Antiproliferative activity against human MCF7 cells expressing CYP1A1 assessed as cell growth inhibition incubated for 48 hrs by sulforhodamine B assay; format: functional, cell-based; details: MCF7, 48 h
[10] = Stability in mouse liver microsomes assessed as intrinsic clearance incubated for 60 mins by HPLC analysis; format: ADME, Microsome; details: read-out: CLH
[11] = Toxicity in chick embryo xenografted with human […] cells transfected with empty vector assessed as mortality at 1 ug, iv incubated for 17 days; format: organism-based, Gallus gallus; details: chicken, in vivo, 408 h, dose 1 µg, time 17 day
[12] = Selectivity ratio, ratio of IC50 for antiproliferative activity against human HT-29 cells to IC50 for antiproliferative activity against human MCF7 cells expressing CYP1A1; format: functional
HT-1080 [13] = experiment: Antiproliferative activity against human HT-1080 cells assessed as cell growth inhibition incubated for 48 hrs by sulforhodamine B assay; format: functional, cell-based; details: HT-1080, 48 h
[14] = Selectivity ratio, ratio of IC50 for antiproliferative activity against ER/PR/HER2-negative human MDA-MB-231 cells to IC50 for antiproliferative activity against ER/PR-positive HER2-negative human T47D cells; format: functional
MCF7 [15] = experiment: Antiproliferative activity against […] human MCF7 cells assessed as cell growth inhibition incubated for 72 hrs by sulforhodamine B assay; format: functional, cell-based; details: MCF7, 72 h
HT-1080 [16] = experiment: Antiproliferative activity against human HT-1080 cells transfected with empty vector assessed as cell growth inhibition incubated for 48 hrs by sulforhodamine B assay; format: functional, cell-based; details: HT-1080, 48 h
SK-BR-3 = experiment: Antiproliferative activity against ER/PR-negative HER2-positive human SK-BR-3 cells assessed as cell growth inhibition incubated for 72 hrs by sulforhodamine B assay; format: functional, cell-based; details: SK-BR-3, 72 h
[17] = Selectivity ratio, ratio of IC50 for antiproliferative activity against ER/PR/HER2-negative human MDA-MB-231 cells to IC50 for antiproliferative activity against ER/PR/HER2-negative human MDA-MB-468 cells; format: functional
MDA-MB-468 = experiment: Antiproliferative activity against ER/PR/HER2-negative human MDA-MB-468 cells assessed as cell growth inhibition incubated for 72 hrs by sulforhodamine B assay; format: functional, cell-based; details: MDA-MB-468, 72 h
[18] = Selectivity ratio, ratio of IC50 for antiproliferative activity against ER/PR/HER2-negative human MDA-MB-231 cells to IC50 for antiproliferative activity against ER/PR-negative HER2-positive human SK-BR-3 cells; format: functional
[19] = Stability in human liver microsomes assessed as half life incubated for 60 mins by HPLC analysis; format: ADME, Microsome
[20] = Stability in mouse liver microsomes assessed as half life incubated for 60 mins by HPLC analysis; format: ADME, Microsome
T47D = experiment: Antiproliferative activity against ER/PR-positive HER2-negative human T47D cells assessed as cell growth inhibition incubated for 72 hrs by sulforhodamine B assay; format: functional, cell-based
[21] = Selectivity ratio, ratio of IC50 for antiproliferative activity against human HT-1080 cells to IC50 for antiproliferative activity against human HT-1080 cells expressing CYP1A1; format: functional
MCF7 [22] = experiment: Induction of cell cycle arrest in human MCF7 cells expressing CYP1A1 assessed as accumulation of cells at G0/G1 phase at 50 nM incubated for 48 hrs by DAPI staining based flow cytometric analysis (reference value: 74+/-2 %); format: functional
HT-1080 [23] = experiment: Antitumor activity against human HT-1080 cells expressing CYP1A1 xenografted in chick embryo assessed as reduction in tumor wet weight at 1 ug, iv incubated for 17 days by CAM assay; format: functional; design: scale not given: the % may be the effect or the level left; details: dose 1 µg, time 17 day
HT-29 = experiment: Antiproliferative activity against human HT-29 cells assessed as cell growth inhibition incubated for 48 hrs by sulforhodamine B assay; format: functional, cell-based; details: HT-29, 48 h
M21 = experiment: Antiproliferative activity against human M21 cells assessed as cell growth inhibition incubated for 48 hrs by sulforhodamine B assay; format: functional, cell-based; details: M21, 48 h
[24] = Selectivity ratio, ratio of IC50 for antiproliferative activity against ER/PR/HER2-negative human MDA-MB-231 cells to IC50 for antiproliferative activity against […] human MCF7 cells; format: functional
[25] = Stability in rat liver microsomes assessed as intrinsic clearance incubated for 60 mins by HPLC analysis; format: ADME, Microsome; details: read-out: CLH
[26] = Selectivity ratio, ratio of IC50 for antiproliferative activity against human HT-1080 cells transfected with empty vector to IC50 for antiproliferative activity against human HT-1080 cells expressing CYP1A1; format: functional
[27] = Toxicity in chick embryo xenografted with human […] cells expressing CYP1A1 assessed as mortality at 1 ug, iv incubated for 17 days; format: organism-based, Gallus gallus; details: chicken, in vivo, 408 h, dose 1 µg, time 17 day
HT-1080 [28] = experiment: Antiproliferative activity against human HT-1080 cells expressing CYP1A1 assessed as cell growth inhibition incubated for 48 hrs by sulforhodamine B assay; format: functional, cell-based; details: HT-1080, 48 h
[29] = Toxicity in chick embryo xenografted with human […] cells assessed as mortality at 1 ug, iv incubated for 17 days; format: organism-based, Gallus gallus; details: chicken, in vivo, 408 h, dose 1 µg, time 17 day
Cytochrome P450 1A1 [30] = target: T1, Cytochrome P450 1A1; experiment: Prodrug conversion assessed as human CYP1A1-mediated CEU-602 formation incubated for 15 mins in presence of NADPH by HPLC analysis; format: ADME; details: recombinant enzyme, 0.25 h
Tubulin (Homo sapiens) [31] = target: T2, Tubulin (Homo sapiens) (UniProt P68371+Q9H4B7+P0DPH7+P68366+Q13509+Q71U36+P04350+Q3ZCM7+P07437+P68363+Q9BQE3+Q6PEY2+Q13885+Q9BVA1+Q9BUF5); experiment: Disruption of microtubules in human MCF7 cells expressing CYP1A1 assessed as cytoskeleton disruption at 840 nM measured after 48 hrs by DAPI staining based fluorescence microscopic analysis; format: cell-based
MCF7 [32] = experiment: Induction of cell cycle arrest in human MCF7 cells expressing CYP1A1 assessed as accumulation of cells at S phase at 1250 nM incubated for 48 hrs by DAPI staining based flow cytometric analysis (reference value: 11+/-1 %); format: functional
MCF7 [33] = experiment: Induction of cell cycle arrest in human MCF7 cells expressing CYP1A1 assessed as accumulation of cells at G0/G1 phase at 1250 nM incubated for 48 hrs by DAPI staining based flow cytometric analysis (reference value: 74+/-2 %); format: functional
Tubulin (Homo sapiens) [34] = target: T2, Tubulin (Homo sapiens); experiment: Disruption of microtubules in human MCF7 cells expressing CYP1A1 assessed as cytoskeleton disruption at 1250 nM measured after 48 hrs by DAPI staining based fluorescence microscopic analysis; format: cell-based
MCF7 [35] = experiment: Induction of cell cycle arrest in human MCF7 cells expressing CYP1A1 assessed as accumulation of cells at G2/M phase at 1250 nM incubated for 48 hrs by DAPI staining based flow cytometric analysis (reference value: 16+/-2 %); format: functional
Cytochrome P450 1A1 [36] = target: T1, Cytochrome P450 1A1; experiment: Prodrug conversion assessed as human CYP1A1-mediated CEU-699 formation incubated for 15 mins in presence of NADPH by HPLC analysis; format: ADME; details: recombinant enzyme, 0.25 h

Compound | Activity (HT-1080 [2]) [%] | Ki (Cytochrome P450 1A1 [4]) [nM] | IC50 (MDA-MB-231) [nM] | Activity (HT-1080 [5]) [%] | half-life [6] [h] | microsomal CLint [7] [µL/min/mg] | Ratio IC50 [8] | IC50 (MCF7 [9]) [nM] | microsomal CLint [10] [µL/min/mg] | Activity [11] | Ratio IC50 [12] | IC50 (HT-1080 [13]) [nM] | Ratio IC50 [14] | IC50 (MCF7 [15]) [nM] | IC50 (HT-1080 [16]) [nM] | IC50 (SK-BR-3) [nM] | Ratio IC50 [17] | IC50 (MDA-MB-468) [nM] | Ratio IC50 [18] | half-life [19] [h] | further results
CCCCCN1CCN(c2ccc(S(=O)(=O)Oc3cc(OC)c(OC)c(OC)c3)cc2)C1=O | 82 | 1400 | 8600 | 93 | 2.08 | 24.3 | >63 | 200 | 74 | Non-Toxic | >63 | 4440 | 8.6 | 38 | 5900 | 3.2 | 410 | 21 | 2700 | 0.95 | Activity (MCF7 [1]): 14%; Activity (MCF7 [3]): 42%; half-life [20]: 0.315 h; IC50 (T47D): 1000 nM; Ratio IC50 [21]: 148; Activity (MCF7 [22]): 44%; Activity (HT-1080 [23]): 62%; IC50 (HT-29): > 12500 nM; IC50 (M21): > 12500 nM; Ratio IC50 [24]: 230; microsomal CLint [25]: 11.1 µL/min/mg; Ratio IC50 [26]: 197; Activity [27]: Non-Toxic; IC50 (HT-1080 [28]): 30 nM; Activity [29]: Non-Toxic; Drug metabolism (Cytochrome P450 1A1 [30]): Metabolite_Detected; Activity (Tubulin (Homo sapiens) [31]): Active
CCCCCN1CCN(c2ccc(S(=O)(=O)Oc3cc(OC)cc(OC)c3)cc2)C1=O | 86 | 230 | > 12500 | 87 | 1.78 | 20 | >21 | 600 | 32 | Non-Toxic | >21 | 6800 | >11 | 43 | 8800 | 79 | >60 | 210 | >160 | 1.17 | Activity (MCF7 [32]): 11%; Activity (MCF7 [33]): 32%; half-life [20]: 0.733 h; IC50 (T47D): 1100 nM; Ratio IC50 [21]: 14; Activity (HT-1080 [23]): 71%; Activity (Tubulin (Homo sapiens) [34]): Active; IC50 (HT-29): > 12500 nM; Activity (MCF7 [35]): 57%; IC50 (M21): > 12500 nM; Ratio IC50 [24]: >290; microsomal CLint [25]: 13 µL/min/mg; Ratio IC50 [26]: 18; Drug metabolism (Cytochrome P450 1A1 [36]): Metabolite_Detected; Activity [27]: Non-Toxic; IC50 (HT-1080 [28]): 500 nM; Activity [29]: Non-Toxic
